pEC50, pIC50: −log10 of the molar value.
Experiments:
B16-F10 cells = experiment: Cell proliferation assay (CellTiter-Glo) in IFN-gamma treated B16-F10 cells; format: cell-based; conditions: 120 h, mouse IFN-gamma 10 ng/mL, read-out: PTPN2 Prolif 5d B16F10 EC50
[1] = system: phosphorylated STAT1 protein levels in B16-F10 cells; experiment: Phospho-STAT1 (Tyr701) HTRF assay in IFN-gamma treated B16-F10 cells; format: cell-based; conditions: mouse IFN-gamma 100 ng/mL, 1 hour, read-out: pSTAT1 HTRF B16 EC50
Procedure, shortened: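 Mouse B16-F10 cells, 10,000/well, pretreated 1 h with compound (0.15% DMSO), then stimulated with mouse IFN-gamma at 100 ng/mL final for 1 h at 37 C. Phospho-STAT1 (Tyr701) measured by HTRF.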

PTPN2 enzyme = target: T1, PTPN2 enzyme (Homo sapiens, UniProt P17706); experiment: PhosphoSens PTPN2 biochemical assay; conditions: substrate AQT0264 20 μM, room temperature; read-out: PTPN2 BCHEM IC50
T1 sequence (P17706 1-415): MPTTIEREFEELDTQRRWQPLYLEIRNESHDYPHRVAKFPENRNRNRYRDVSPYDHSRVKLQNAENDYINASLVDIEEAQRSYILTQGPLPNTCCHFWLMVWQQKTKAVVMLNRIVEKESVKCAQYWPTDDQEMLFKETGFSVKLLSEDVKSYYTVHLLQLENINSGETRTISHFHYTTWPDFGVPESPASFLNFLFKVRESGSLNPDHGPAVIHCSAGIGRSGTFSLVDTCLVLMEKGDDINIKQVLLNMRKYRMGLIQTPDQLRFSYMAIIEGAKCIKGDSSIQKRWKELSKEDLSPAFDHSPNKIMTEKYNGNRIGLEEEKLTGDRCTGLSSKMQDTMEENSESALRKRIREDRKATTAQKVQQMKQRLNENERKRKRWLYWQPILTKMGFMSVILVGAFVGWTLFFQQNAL
Procedure, shortened: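 PhosphoSens fluorescence format with 20 μM final AQT0264 substrate and […] in 50 mM HEPES pH 7.5, 500 μM EGTA, […], 0.01% Brij-35, 1% glycerol, 1 mM DTT, 0.2 mg/mL BSA. Compounds in 3-fold dilution series; progress curves read (ex 360/em 480 nm) every 71 s for 1 h at room temperature.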

Row | pEC50 (B16-F10 cells) | pEC50 [1] | pIC50 (PTPN2 enzyme) | SMILES
1 | 5.25 | 4.96 | 7.77 | O=C1CN(c2c(O)cc(CN[C@@H]3CCCN(S(=O)(=O)C4CC4)C3)cc2F)S(=O)(=O)N1 [EXAMPLE 74, 5-[4-[[[(3R)-1-cyclopropylsulfonyl-3-piperidyl]amino]methyl]-2-fluoro-6-hydroxy-phenyl]-1,1-dioxo-1,2,5-thiadiazolidin-3-one]
2 | 6.11 | 6.11 | 7.38 | CC1(C)CCC[C@H](NCc2cc(O)c(N3CC(=O)NS3(=O)=O)c(F)c2)C1 [EXAMPLE 66, (S)-5-(4-(((3,3-dimethylcyclohexyl)amino)methyl)-2-fluoro-6-hydroxyphenyl)-1,2,5-thiadiazolidin-3-one 1,1-dioxide]
3 | ≤ 4.82 | ≤ 4.82 | 6.12 | CC(C)CCN1CCC(Nc2cc(O)c(N3CC(=O)NS3(=O)=O)c(F)c2)CC1 [EXAMPLE 89, 5-(2-fluoro-6-hydroxy-4-((1-isopentylpiperidin-4-yl)amino)phenyl)-1,2,5-thiadiazolidin-3-one 1,1-dioxide]
4 | ≤ 4.82 | 5.29 | 6.42 | CNC(=O)[C@H]1CC[C@H](NCc2cc(O)c(N3CC(=O)NS3(=O)=O)c(F)c2)CC1 [EXAMPLE 58, (1r,4r)-4-((4-(1,1-dioxido-4-oxo-1,2,5-thiadiazolidin-2-yl)-3-fluoro-5-hydroxybenzyl)amino)-N-methylcyclohexane-1-carboxamide]
5 | ≤ 4.82 | ≤ 4.82 | 6.50 | CN(C)C1CCN(c2cc(O)c(N3CC(=O)NS3(=O)=O)c(F)c2)CC1 [EXAMPLE 87, 5-(4-(4-(dimethylamino)piperidin-1-yl)-2-fluoro-6-hydroxyphenyl)-1,2,5-thiadiazolidin-3-one 1,1-dioxide]
6 | 4.84 | ≤ 4.82 | 7.06 | CC(C)CCN1CCC[C@@H](NCc2cc(O)c(N3CC(=O)NS3(=O)=O)c(F)c2)C1 [EXAMPLE 62, (R)-5-(2-fluoro-6-hydroxy-4-(((1-isopentylpiperidin-3-yl)amino)methyl)phenyl)-1,2,5-thiadiazolidin-3-one 1,1-dioxide]
7 | 5.66 | 5.49 | 7.43 | CS(=O)(=O)N1CCC[C@H](NCc2cc(O)c(N3CC(=O)NS3(=O)=O)c(F)c2)C1 [EXAMPLE 75, 5-[2-fluoro-6-hydroxy-4-[[[(3S)-1-methylsulfonyl-3-piperidyl]amino]methyl]phenyl]-1,1-dioxo-1,2,5-thiadiazolidin-3-one]
8 | ≤ 4.82 | ≤ 4.82 | 7.92 | O=C(O)CC(=O)N1CCC[C@H](NCc2cc(O)c(N3CC(=O)NS3(=O)=O)c(F)c2)C1 [EXAMPLE 76, 3-[(3S)-3-[[3-fluoro-5-hydroxy-4-(1,1,4-trioxo-1,2,5-thiadiazolidin-2-yl)phenyl]methylamino]-1-piperidyl]-3-oxo-propanoic acid]
9 | ≤ 4.82 | ≤ 4.82 | 6.32 | CNC(=O)CN1CCN(Cc2cc(O)c(N3CC(=O)NS3(=O)=O)c(F)c2)CC1 [EXAMPLE 59, 2-(4-(4-(1,1-dioxido-4-oxo-1,2,5-thiadiazolidin-2-yl)-3-fluoro-5-hydroxybenzyl)piperazin-1-yl)-N-methylacetamide]
10 | ≤ 4.82 | ≤ 4.82 | 5.35 | CN1CCC(c2ccc(O)c(N3CC(=O)NS3(=O)=O)c2F)CC1 [EXAMPLE 106, 5-(2-fluoro-6-hydroxy-3-(1-methylpiperidin-4-yl)phenyl)-1,2,5-thiadiazolidin-3-one 1,1-dioxide]
11 | 5.33 | 5.45 | 7.27 | CS(=O)(=O)N1CCC[C@@H](NCc2cc(O)c(N3CC(=O)NS3(=O)=O)c(F)c2)C1 [EXAMPLE 72, 5-[2-fluoro-6-hydroxy-4-[[[(3R)-1-methylsulfonyl-3-piperidyl]amino]methyl]phenyl]-1,1-dioxo-1,2,5-thiadiazolidin-3-one]
12 | ≤ 4.82 | ≤ 4.82 | 6.39 | CC(=O)N[C@H]1CC[C@H](NCc2cc(O)c(N3CC(=O)NS3(=O)=O)c(F)c2)CC1 [EXAMPLE 60, N-((1r,4r)-4-((4-(1,1-dioxido-4-oxo-1,2,5-thiadiazolidin-2-yl)-3-fluoro-5-hydroxybenzyl)amino)cyclohexyl)acetamide]

Continued, compound first:

Row | SMILES | pEC50 (B16-F10 cells) | pEC50 [1] | pIC50 (PTPN2 enzyme)
13 | CC1(C)CCC(NCc2cc(O)c(N3CC(=O)NS3(=O)=O)c(F)c2)CC1 [EXAMPLE 37, 5-(4-(((4,4-dimethylcyclohexyl)amino)methyl)-2-fluoro-6-hydroxyphenyl)-1,2,5-thiadiazolidin-3-one 1,1-dioxide] | 6.09 | 5.87 | 7.46
14 | Cc1cc(OCC2CC2)cc(-c2cc(O)c(N3CC(=O)NS3(=O)=O)c(F)c2)c1 [EXAMPLE 21, 5-[4-[3-(cyclopropylmethoxy)-5-methyl-phenyl]-2-fluoro-6-hydroxy-phenyl]-1,1-dioxo-1,2,5-thiadiazolidin-3-one] | ≤ 4.82 | ≤ 4.82 | 5.16
15 | CC(C)CCN1CCN(Cc2cc(O)c(N3CC(=O)NS3(=O)=O)c(F)c2)CC1 [EXAMPLE 32, 5-(2-fluoro-6-hydroxy-4-((4-isopentylpiperazin-1-yl)methyl)phenyl)-1,2,5-thiadiazolidin-3-one 1,1-dioxide] | ≤ 4.82 | ≤ 4.82 | 7.19
16 | O=C1CN(c2c(O)cc(-c3ccncc3)cc2F)S(=O)(=O)N1 [EXAMPLE 9, 5-(2-fluoro-6-hydroxy-4-(pyridin-4-yl)phenyl)-1,2,5-thiadiazolidin-3-one 1,1-dioxide] | ≤ 4.82 | ≤ 4.82 | 6.49
17 | O=C1CN(c2c(O)cc(CN3CCC(F)CC3)cc2F)S(=O)(=O)N1 [EXAMPLE 42, 5-(2-fluoro-4-((4-fluoropiperidin-1-yl)methyl)-6-hydroxyphenyl)-1,2,5-thiadiazolidin-3-one 1,1-dioxide] | 5.33 | 5.59 | 7.22
18 | O=C1CN(c2c(O)cc(-c3cnc4ccccc4c3)cc2F)S(=O)(=O)N1 [EXAMPLE 24, 5-[2-fluoro-6-hydroxy-4-(3-quinolyl)phenyl]-1,1-dioxo-1,2,5-thiadiazolidin-3-one] | ≤ 4.82 | ≤ 4.82 | 6.72
19 | CN(C)c1ccc(-c2cc(O)c(N3CC(=O)NS3(=O)=O)c(F)c2)cn1 [EXAMPLE 29, 5-[4-[6-(dimethylamino)-3-pyridyl]-2-fluoro-6-hydroxy-phenyl]-1,1-dioxo-1,2,5-thiadiazolidin-3-one] | ≤ 4.82 | ≤ 4.82 | 7.05
20 | O=C1CN(c2c(O)cc(-c3ccc(N4CCOCC4)cc3)cc2F)S(=O)(=O)N1 [EXAMPLE 13, 5-[2-fluoro-6-hydroxy-4-(4-morpholinophenyl)phenyl]-1,1-dioxo-1,2,5-thiadiazolidin-3-one] | ≤ 4.82 | ≤ 4.82 | 6.33
21 | O=C1CN(c2c(O)cc(-c3ccc(-c4ccccc4)nc3)cc2F)S(=O)(=O)N1 [EXAMPLE 30, 5-[2-fluoro-6-hydroxy-4-(6-phenyl-3-pyridyl)phenyl]-1,1-dioxo-1,2,5-thiadiazolidin-3-one] | ≤ 4.82 | ≤ 4.82 | 6.83
22 | O=C1CN(c2c(O)cc(-c3ccc(-c4ccc(F)cc4)cc3)cc2F)S(=O)(=O)N1 [EXAMPLE 12, 5-[2-fluoro-4-[4-(4-fluorophenyl)phenyl]-6-hydroxy-phenyl]-1,1-dioxo-1,2,5-thiadiazolidin-3-one] | ≤ 4.82 | ≤ 4.82 | 5.70
23 | CN(C)C1CCN(Cc2cc(O)c(N3CC(=O)NS3(=O)=O)c(F)c2)CC1 [EXAMPLE 33, 5-(4-((4-(dimethylamino)piperidin-1-yl)methyl)-2-fluoro-6-hydroxyphenyl)-1,2,5-thiadiazolidin-3-one 1,1-dioxide] | ≤ 4.82 | ≤ 4.82 | 7.03
24 | O=C1CN(c2c(O)cc(-c3cccc(N4CCOCC4)c3)cc2F)S(=O)(=O)N1 [EXAMPLE 16, 5-[2-fluoro-6-hydroxy-4-(3-morpholinophenyl)phenyl]-1,1-dioxo-1,2,5-thiadiazolidin-3-one] | ≤ 4.82 | ≤ 4.82 | 6.37
25 | CN1CCC(c2cc(O)c(N3CC(=O)NS3(=O)=O)c(F)c2)CC1 [EXAMPLE 4, 5-[2-fluoro-6-hydroxy-4-(1-methyl-4-piperidyl)phenyl]-1,1-dioxo-1,2,5-thiadiazolidin-3-one] | ≤ 4.82 | ≤ 4.82 | 6.09
26 | O=C1CN(c2c(O)cc(CN3CCC(O)CC3)cc2F)S(=O)(=O)N1 [EXAMPLE 52, 5-[2-fluoro-6-hydroxy-4-[(4-hydroxy-1-piperidyl)methyl]phenyl]-1,1-dioxo-1,2,5-thiadiazolidin-3-one] | 5.16 | 5.34 | 6.94

Source: patent US12162848B2, “Inhibitors of protein tyrosine phosphatase, compositions, and methods of use” (BRISTOL-MYERS SQUIBB COMPANY, priority 2022, dated 2024)
